Test system: 883617-216-R-J1-PDC complex spheroid viability
Test: Anticancer human tumor 883617-216-R-J1-PDC patient-derived bladder carcinoma cell line growth inhibition
Conditions: for IC50: curve of first compound; for viability, T/C: stronger effect = lower value; active = viability on the fitted dose curve at most 10% of control; inactive = the rest
How it was run: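 Complex spheroids of tumor cells with HUVEC and human MSCs, exposed to iadademstat combined with other agents. Each agent tested in half-log steps from near clinical Cmax (else 10 microM top), DMSO ≤0.25%.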

[1] = second compound 0.1 µM, first compound 0.000316 µM
[2] = second compound 0.1 µM, first compound 0.001 µM
[3] = second compound 0.1 µM, first compound 0.00316 µM
[4] = second compound 0.1 µM, first compound 0.01 µM
[5] = second compound 0.1 µM, first compound 0.0316 µM
[6] = second compound 0.1 µM, first compound 0.1 µM
[7] = second compound 0.316 µM, first compound 0.000316 µM
[8] = second compound 0.316 µM, first compound 0.001 µM
[9] = second compound 0.316 µM, first compound 0.00316 µM
[10] = second compound 0.316 µM, first compound 0.01 µM
[11] = second compound 0.316 µM, first compound 0.0316 µM
[12] = second compound 0.316 µM, first compound 0.1 µM
[13] = second compound 1 µM, first compound 0.000316 µM
[14] = second compound 1 µM, first compound 0.001 µM
[15] = second compound 1 µM, first compound 0.00316 µM
[16] = second compound 1 µM, first compound 0.01 µM
[17] = second compound 1 µM, first compound 0.0316 µM
[18] = second compound 1 µM, first compound 0.1 µM
[19] = second compound 3.16 µM, first compound 0.000316 µM
[20] = second compound 3.16 µM, first compound 0.001 µM
[21] = second compound 3.16 µM, first compound 0.00316 µM
[22] = second compound 3.16 µM, first compound 0.01 µM
[23] = second compound 3.16 µM, first compound 0.0316 µM
[24] = second compound 3.16 µM, first compound 0.1 µM
[25] = second compound 10 µM, first compound 0.000316 µM
[26] = second compound 10 µM, first compound 0.001 µM
[27] = second compound 10 µM, first compound 0.00316 µM
[28] = second compound 10 µM, first compound 0.01 µM
[29] = second compound 10 µM, first compound 0.0316 µM
[30] = second compound 10 µM, first compound 0.1 µM
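Also: exposure lasted seven days after three days of spheroid growth.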
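For viability, T/C in this document: 100% = DMSO vehicle control luminescence.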

CC(C)CC(NC(=O)C(Cc1ccccc1)NC(=O)c1cnccn1)B(O)O (stereo not given) + NC1CC1c1ccc(-c2cccc(O)c2)cc1
0.581 nM: IC50 (second compound 10 µM)
0.885 nM: IC50 (second compound 0.316 µM)
inactive: viability, T/C [1] 104% | viability, T/C [2] 42.8% | viability, T/C [7] 108% | viability, T/C [8] 43.1% | viability, T/C [13] 124% | viability, T/C [14] 46.5% | viability, T/C [19] 108% | viability, T/C [20] 35.9% | viability, T/C [25] 82.5% | viability, T/C [26] 21%
0.874 nM: IC50 (second compound 0.1 µM)
0.949 nM: IC50 (second compound 1 µM)
active: viability, T/C [3] 0.61% | viability, T/C [4] 0.03% | viability, T/C [5] 0.03% | viability, T/C [6] 0.12% | viability, T/C [9] 0.43% | viability, T/C [10] 0.02% | viability, T/C [11] 0.02% | viability, T/C [12] 0.12% | viability, T/C [15] 0.86% | viability, T/C [16] 0.02% | viability, T/C [17] 0.02% | viability, T/C [18] 0.56% | viability, T/C [21] 1.57% | viability, T/C [22] 0.04% | viability, T/C [23] 0.04% | viability, T/C [24] 0.3% | viability, T/C [27] 0.27% | viability, T/C [28] 0.21% | viability, T/C [29] 0.61% | viability, T/C [30] 0.22%
0.798 nM: IC50 (second compound 3.16 µM)

CC(C)CC(NC(=O)CNC(=O)c1cc(Cl)ccc1Cl)B1OC(=O)CC(CC(=O)O)(C(=O)O)O1 (stereo not given) + NC1CC1c1ccc(-c2cccc(O)c2)cc1
3.66 nM: IC50 (second compound 0.1 µM)
1.86 nM: IC50 (second compound 10 µM)
inactive: viability, T/C [1] 95.3% | viability, T/C [2] 97.8% | viability, T/C [3] 49.6% | viability, T/C [4] 21.4% | viability, T/C [7] 123% | viability, T/C [8] 121% | viability, T/C [9] 50.4% | viability, T/C [13] 105% | viability, T/C [14] 108% | viability, T/C [15] 39.5% | viability, T/C [19] 97.7% | viability, T/C [20] 93.3% | viability, T/C [21] 37.4% | viability, T/C [25] 81.1% | viability, T/C [26] 69.3% | viability, T/C [27] 33.2%
2.61 nM: IC50 (second compound 3.16 µM)
2.66 nM: IC50 (second compound 1 µM)
active: viability, T/C [5] 0.86% | viability, T/C [6] 0.21% | viability, T/C [10] 18% | viability, T/C [11] 1% | viability, T/C [12] 0.16% | viability, T/C [16] 18.4% | viability, T/C [17] 0.85% | viability, T/C [18] 0.15% | viability, T/C [22] 19.5% | viability, T/C [23] 0.76% | viability, T/C [24] 0.15% | viability, T/C [28] 10.2% | viability, T/C [29] 0.25% | viability, T/C [30] 0.36%
3.45 nM: IC50 (second compound 0.316 µM)
